From ChEMBL document CHEMBL1201862, “PubChem BioAssay data set” (2004)
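All cell lines were grown in 96-well plates and treated with compound for 48 hours. Abbreviation: GI50, concentration required for 50% inhibition of growth.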 Active and inactive are the calls of the source. Rule as the data show it: active = GI50 up to about 1.1 µM and inactive = higher.

Columns and labels:
Test in all cases: NCI-60 cell line screen, 48 h
[1] = tested on: SK-OV-3
[2] = tested on: HCT-15
[3] = tested on: IGROV-1
[4] = tested on: LXFL 529
[5] = tested on: HL-60
[6] = tested on: SF-268
[7] = tested on: UACC-62
[8] = tested on: TK-10
[9] = tested on: MOLT-4
[10] = tested on: SNB-75
[11] = tested on: HOP-62
[12] = tested on: SNB-19
[13] = tested on: A498
[14] = tested on: CAKI-1
[15] = tested on: MDA-MB-231
[16] = tested on: OVCAR-8
[17] = tested on: Malme-3M
[18] = tested on: HCC 2998
[19] = tested on: MDA-MB-435
[20] = tested on: MDA-N

Row | SMILES | GI50 [1] | GI50 [2] [µM] | GI50 [3] | GI50 [4] | GI50 [5] | GI50 [6] | GI50 [7] | GI50 [8] | GI50 [9] | GI50 [10] | GI50 [11] | GI50 [12] | GI50 [13] | GI50 [14] | GI50 [15] | GI50 [16] | GI50 [17] | GI50 [18] | GI50 [19] | GI50 [20]
1 | Cc1nc(-n2nc(-c3ccccc3)cc2-c2ccccc2)sc1C(/C=C\c1ccc([N+](=O)[O-])cc1)=N/NC(=S)NN | > 85.7 µM (inactive) | 22.8 | 40.7 µM (inactive) | 47.3 µM (inactive) | > 52.5 µM (inactive) | 26.4 µM (inactive) | 39.1 µM (inactive) | 37.2 µM (inactive) | > 52.5 µM (inactive) | 74.3 µM (inactive) | 22 µM (inactive) | > 49.3 µM (inactive) | > 100 µM (inactive) | > 42.5 µM (inactive) | > 10 µM (inactive) | 16.7 µM (inactive) | > 58.6 µM (inactive) | 13.8 µM (inactive) | > 100 µM (inactive) | 22 µM (inactive)
2 | c1nc(N2CC2)c2cnn(C3CCCCO3)c2n1 (stereo not given) | > 100 µM (inactive) | > 100 | > 100 µM (inactive) | > 100 µM (inactive) | > 100 µM (inactive) | > 100 µM (inactive) | > 100 µM (inactive) | > 100 µM (inactive) | > 100 µM (inactive) | > 100 µM (inactive) | > 100 µM (inactive) | > 100 µM (inactive) | > 100 µM (inactive) | > 100 µM (inactive) | > 100 µM (inactive) | > 100 µM (inactive) | > 100 µM (inactive) | > 100 µM (inactive) | > 100 µM (inactive) | > 100 µM (inactive)
